Test results as given in patent publication US8420776B2, “Ube2G2 binding domain in the ubiquitin ligase gp78 and methods of use thereof” (The United States of America, as Represented by the …, priority 2004, dated 2013).

Experiments:
Type in all cases: cell-based
[1] = system: J558 cells; experiment: UPR markers in J558 myeloma cells expressing GFP fusions
Method: (§1) Transfections of HT1080, NIH 3T3 and HEK 293T cells were carried out ˜24 hr after plating using Polyfect (Qiagen, Valencia, Calif.) and cells harvested after ˜48 hr. J558 cells were transfected by electroporation using Bio-rad GENE pulser II at settings of 250 v, 950uF. Vector without insert was used to equalize total plasmid. In most experiments 0.15 μg of pEGFP-C1 served as an internal control. For experiments not involving immunoprecipitation, 6×10^5 cells were plated in 6 well plates and cell lysis was with Mammalian Protein Extraction Reagent (Pierce). For immunoprecipitation, 2.4×10^6 cells were seeded in 100 mm dishes and cells were lysed in RIPA buffer (1×PBS, 1% Nonidet P40. 0.5% sodium deoxycholate, 0.1% SDS). Lysis buffers were supplemented with Protease Inhibitor Cocktail (Sigma) and 10 mM iodoacetamide. Supernatants were analyzed after a 10,000×g centrifugation using standard techniques for immunoprecipitation, SDS-PAGE, immunoblotting and ECL. Treatment of cells with MG132 (Sigma) was at 50 μM for eight hr. Cycloheximnide was used at 50 μg/ml. All cells were collected at the end of the six hr chase.
(§2) 24 hr after transfection with constructs encoding GFP or GFP fusion proteins, cells were stained with annexin V-PE (BD Pharmingen) and analyzed on a Beckman coulter XL. Data for J558 was average of three experiments, NIH 3T3 was from 2 experiments. Gates were set to analyze cells expressing GFP using 525 band-pass filter and evaluated for annexin V-PE staining using a 575 band-pass filter. To isolate cells expressing GFP, J558 cells were harvested 24 hr after transfection and sorted on a BD FACS Aria. Transfection efficiencies were 7-10%. 2×10^4 cells expressing GFP fusions were isolated.
Cells with active secretory pathways, such as myeloma, might be predicted to be particularly susceptible to ER stress. […] As with NIH 3T3 cells, expression of the Ube2G2 binding site in the well characterized myeloma cell line J558 led to increases in BiP and phospho-eIF2α.

[2] = system: NIH 3T3 cells; experiment: UPR markers in NIH 3T3 cells expressing GFP fusions
Method: as §1
(§3) Similarly, an increase in phospho-eIF2α, which attenuates translation and is activated by PERK, was also observed. […] An effective UPR ultimately requires an increase in ERAD. However, the ectopic expression of the Ube2G2 binding site should create a block specifically at this point.

[3] = biological target: T1, endogenous UbcH5B (Homo sapiens, UniProt P62837); experiment: Co-immunoprecipitation of endogenous UbcH5B with GFP fusions in HEK 293T cells; settings: anti-GFP IP
T1 construct: endogenous in cells; host or cells: HEK 293T
T1 sequence (P62837 whole entry, the tested form may be a part): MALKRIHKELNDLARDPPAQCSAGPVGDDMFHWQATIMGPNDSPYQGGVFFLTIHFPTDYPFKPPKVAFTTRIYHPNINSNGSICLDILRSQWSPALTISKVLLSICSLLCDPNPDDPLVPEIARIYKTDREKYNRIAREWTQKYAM
Method: (§4) Transfections of HT1080, NIH 3T3 and HEK 293T cells were carried out ˜24 hr after plating using Polyfect (Qiagen, Valencia, Calif.) and cells harvested after ˜48 hr. J558 cells were transfected by electroporation using Bio-rad GENE pulser II at settings of 250 v, 950uF. Vector without insert was used to equalize total plasmid. In most experiments 0.15 μg of pEGFP-C1 served as an internal control. For experiments not involving immunoprecipitation, 6×10^5 cells were plated in 6 well plates and cell lysis was with Mammalian Protein Extraction Reagent (Pierce). […] Supernatants were analyzed after a 10,000×g centrifugation using standard techniques for immunoprecipitation, SDS-PAGE, immunoblotting and ECL. […]
(§5) FIG. 6 depicts the specific binding of gp78 residues 574-611 (of SEQ ID NO:2) to endogenous Ube2G2 in HEK 293T cells. Cells were transfected with plasmids encoding GFP fusions of the indicated regions of gp78, and co-immunoprecipitation was evaluated. […]
(§6) To determine the specificity of E2 binding in cells, GFP fusions encompassing the E2 binding region were expressed in cells, and co-immunoprecipitation of endogenous E2 was tested using antibodies raised specifically against Ube2g1, Ube2G2 and UbcH5B (FIG. 19B). […] In contrast, and consistent with the in vitro binding data in FIG. 18, no association with endogenous UbcH5B or Ube2g1 was detected (FIG. 19B third and fourth panels, left). […]

[4] = system: HeLA, U20S and HT1080; experiment: Cell death in epithelial cancer and sarcoma cell lines
Text: as §3

[5] = system: J558 cells; experiment: Loss of J558 cells expressing GFP fusions by microscopy; settings: relative to GFP574-611E2-m2
Method: (§7) This was verified by a rapid loss of GFP immunoreactivity from cells expressing GFP574-611 (FIG. 7C). To confirm that this is a consequence of apoptosis, cells were evaluated by flow cytometry 24 hours after transfection. This early point was chosen, as by 48 hours few cells expressing the GFP574-611 could be discerned microscopically. […] Thus, the isolated Ube2G2 binding site of gp78 initiates an UPR in cells and a program leading to apoptotic cell death preferentially in myeloma cells.

[6] = system: ERAD substrate CD3-δ; experiment: CD3-δ level in co-transfected cells by immunoblotting; settings: co-transfection with CD3-δ, immunoblot
Method: as §1
FIG. 7 depicts the stabilization of CD3-δ protein in cells transfected with the G2BD, but not with the G2BD with amino acids 579-584 (of SEQ ID NO:2) mutated. HEK 293T cells were transfected with the ERAD substrate CD3-δ along with the indicated GFP fusions of gp78. The left and right sides are two separate experiments.
(§8) To test this, GFP fusions of either a minimal E2 binding domain (GFP-574-611) or a more extended region that includes the C-terminus of gp78 (GFP-574-643) were evaluated (FIG. 21A). […] To assess this further, the C-terminal region of gp78 was fused to the eight amino acid Flag tag. […] Mdm2 is a RING finger E3 for both itself and p53 that is neither an ERAD substrate nor known to utilize Ube2G2 as an E2. […] To establish with certainty that the effect observed with expression of the Ube2G2 binding site is a consequence of binding endogenous E2, and not due to other unanticipated effects, cells were co-transfected with increasing amounts of Ube2G2 (FIG. 21C, lanes 3 and 4). […] These findings clearly establish that the isolated E2 binding site has the potential to markedly alter ERAD of CD3-δ. To ensure the effect observed was not peculiar to one substrate, TCR-α was evaluated (FIG. 21D).

[7] = system: ERAD substrate TCR-α; experiment: TCR-α level in co-transfected cells; settings: co-transfection with TCR-α
Method: as §1
FIG. 9 depicts the stabilization of endogenous TCRα by the G2BD. TCR-α is a subunit of the T cell antigent receptor and an ERAD substrate. TCR-α was stabilized by the region implicated in Ube2G2 binding.
as §8

[8] = biological target: T2, endogenous Ube2g1 (Homo sapiens, UniProt P62253); experiment: Co-immunoprecipitation of endogenous Ube2G1 with GFP fusions in HEK 293T cells; settings: anti-GFP IP
T2 construct: endogenous in cells; host or cells: HEK 293T
T2 sequence (P62253 1-170): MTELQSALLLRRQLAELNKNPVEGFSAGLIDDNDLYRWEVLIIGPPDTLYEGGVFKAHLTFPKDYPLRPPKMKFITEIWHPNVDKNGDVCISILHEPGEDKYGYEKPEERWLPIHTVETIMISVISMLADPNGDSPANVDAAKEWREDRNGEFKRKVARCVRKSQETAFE
Method: as §4, §5, §6

[9] = system: human multiple myeloma cells; experiment: Ube2G2 binding site expression in human myeloma
[10] = system: J558 cells; experiment: Annexin V staining by flow cytometry in J558 cells; settings: 24 hours after transfection, vs GFP574-611E2-m2 or GFP alone
Text: as §2, §7

[11] = biological target: T3, endogenous Ube2G2 (Homo sapiens, UniProt P60604); experiment: Co-immunoprecipitation of endogenous Ube2G2 with GFP fusions in HEK 293T cells; settings: anti-GFP IP
T3 construct: endogenous in cells; host or cells: HEK 293T
T3 sequence (P60604 1-165): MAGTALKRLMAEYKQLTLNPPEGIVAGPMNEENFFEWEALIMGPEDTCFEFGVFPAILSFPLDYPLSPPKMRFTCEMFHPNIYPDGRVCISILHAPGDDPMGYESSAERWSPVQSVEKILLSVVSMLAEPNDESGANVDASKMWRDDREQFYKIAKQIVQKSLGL
Method: as §4, §5, §6

[12] = system: HEK 293T cells or NIH 3T3 cells; experiment: Cell death by microscopy in HEK 293T or NIH 3T3 cells
Text: as §3

[13] = system: NIH 3T3 cells; experiment: Annexin V staining by flow cytometry in NIH 3T3 cells; settings: 24 hours after transfection
Text: as §2, §7

GFP-574-611: N-terminal GFP fusion of gp78 residues 574-611, a minimal E2 binding domain (SADERQRMLVQRKDELLQQARKRFLNKSSEDDAASESF; listed as Homo sapiens)
BiP level [1]: increases | CHOP level [1]: marked increase | GFP immunoreactivity over time [1]: rapid loss | phospho-eIF2α level [1]: increases | CHOP accumulation [2]: no accumulation | ER chaperone BiP level [2]: increase | phospho-eIF2α level [2]: increase | total eIF2α level [2]: not significantly altered | loss of GFP fusion relative to mutant form ([2]; GFP immunoblot): nor was there any discernable loss | co-immunoprecipitation of endogenous UbcH5B [3]: not co-immunoprecipitated | cell death [4]: lack of increased cell death | loss of cells expressing the GFP fusion, by microscopy [5]: differential loss | effect on CD3-δ level (stabilization) [6]: dramatically stabilized CD3-δ | effect on CD3-δ level (stabilization) ([6]; listed as 574-611): sufficient to stabilize CD3-δ | effect on TCR-α level (stabilization) ([7]; listed as G2BD): stabilized | effect on TCR-α level (stabilization) ([7]; listed as Ube2G2 binding site): markedly stabilized TCR-α | co-immunoprecipitation of endogenous Ube2G1 [8]: not co-immunoprecipitated | apoptosis in human myelomas [9]: leads to apoptosis | annexin V staining (apoptosis marker) [10]: dramatic increase | co-immunoprecipitation of endogenous Ube2G2 [11]: sufficient to co-immunoprecipitate endogenous Ube2G2 | cell death by microscopy [12]: no microscopic evidence of increased cell death | annexin V staining (apoptosis marker) [13]: No significant increase
